“Also recorded” adds a separate entry of the source.
Tests used:
[1] = test system: PbT-I liver TRM cells; test: Prime-and-trap vaccination with CpG or α-GalCer as adjuvant; assay type: in vivo, C57BL/6 mice; conditions: adjuvant with αClec9a-NVY plus rAAV-NVY; 50,000 PbT-I cells; liver day 35
Text: The following day all mice were infected with 2.5×10^9 copies of rAAV-NVY. Spleens (A) and livers (B) were harvested from all mice 35 days later and the number of PbT-I TRM (CD69^+CD62L^low), TEM (CD69−CD62L^low) and TCM (CD69−CD62L^high) cells were enumerated by flow cytometry.
As illustrated above, prime-and-trap vaccination using CpG as an adjuvant was very effective at inducing liver TRM cells. To test whether CpG adjuvant might be substituted by α-GalCer, we compared prime-and-trap using CpG versus α-GalCer, (FIG. 3). C57BL/6 mice were injected with 50,000 naïve PbT-I T cells to track responses and were then vaccinated with the anti-Clec9A-NVY fusion protein together with either CpG or α-GalCer as adjuvant plus rAAV-NVY (SEQ ID NO: 15).

[2] = test system: NKT cells; test: NKT cell expansion and activation by NVY conjugates; assay type: in vivo, C57BL/6 mice; conditions: 0.135 nmol, day 3
Text: Lymphocytes were stained with monoclonal antibodies for: CD49a (Ha31/8), NK1.1 (PK136) from BD (North Ryde, NSW, Australia), CD8a (53-6.7), KLRG1 (2F1), Ly5.1 (A20), Ly5.1 (104), CD8a (53-6.7), CD44 (IM7), Ly6C (HK1.4), TCRβ (H57-597), CXCR6 (SA051D1), CXCR3 (CXCR3-173), CX3CR1 (SA011F11), from Biolegend (Australian Biosearch, Karrinyup, WA. Australia), and CD62L (MEL-14), CD101 (Moushi101) and CD69 (H1.2F3), from eBioscience (Jomar Life Research, Scoresby, VIC, Australia). Dead cells were excluded by propidium iodide staining or far red live/dead fixable dye (ThermoFisher). In some experiments cells were stained with an α-GalCer (PBS-44—a gift from Prof. Paul Savage, Brigham-Young University, UT, USA)-loaded CD1d tetramer produced in-house at 4° C. for 30 min, washed, and further antibody staining was conducted for 10 min at 4° C. Antibodies used were for: CD3 (17A2), CD45R/B220 (RA3-6B2), NK1.1 (PK136), CD69 (H1.2F3), all from BioLegend (CA, USA). The viability dye used was DAPI (Invitrogen, NZ). Single-color positive control samples were used to adjust compensation and cells were analyzed by flow cytometry on a LSR Fortessa (BD Biosciences), or LSRII SORP using Flowjo software (Tree Star Inc.).

[3] = test system: P. berghei sporozoites; test: P. berghei sporozoite challenge of vaccinated mice given PbT-I cells; conditions: single vaccination; 200 P. berghei ANKA sporozoites at day 42
Protocol: The remaining mice were challenged with 200 P. berghei sporozoites at day 42 and parasitemia was measured by flow cytometry from day 6-13. […] Percentage of parasites present in red blood cells at day 7 post malaria challenge. […] Number of mice that succumbed or were protected after malaria challenge.
The remaining mice in each group were challenged with 200 P. berghei sporozoites at day 73 and parasitemia was measured at day 79, 80, 81. Mice with two consecutive days of visible parasites in the blood were culled. Mice surviving challenge with low dose sporozoites were rechallenged with 3000 sporozoites. Parasitemia was measured at days 5, 6, 7, 8 and 12 post-high-dose-challenge.
As described in Example 11, 50,000 PbT-I.GFP cells were transferred into recipient C57BL/6 mice. […] Organs were harvested from mice from each group at days 21-35 post vaccination and assessed for the generation of memory T cells by flow cytometry as outlined in FIG. 5. The remaining mice per group were challenged with 200 P. berghei sporozoites at day 42 and parasitemia was measured by flow cytometry at days 6, 7, 8 and 13. […]
As described in Example 12, 50,000 PbT-I.GFP cells were transferred into recipient C57BL/6 mice. […] Organs were harvested from mice from each group at days 21 post vaccination and assessed for the generation of memory T cells by flow cytometry as outlined in FIG. 5. […]

[4] = test system: epitope-specific CD8+ T cell response; test: PfRPL677-85-specific response in spleen by ELISpot after peptide immunization of HHD mice; assay type: in vivo; conditions: peptide with anti-CD40 mAb and poly IC, spleen day 7
Protocol: HHD mice, which express human HLA-A*02:01 and lack expression of murine MHC class molecules, were immunized with […] anti-CD40 mAb+[…] poly IC+[…] of PfRPL677-85 peptide ([…]) (SEQ ID NO: 18), or no peptide. 7 days later, PfRPL677-85-specific responses were measured in the spleen by ELISpot, by restimulating with the same peptide. Data were analysed using two-way ANOVA; Number of experiments=2, number of mice=3-4.
Having characterized PBANKA 1351900 (60S ribosomal protein L6-2, putative) RPL6 as a promising antigen in P. berghei, we sought to identify potential human-relevant antigens in its P. falciparum ortholog (PF3D7 1338200, also known as PF13 0213). To this extent, we used the Immune Epitope Database (IEDB: https://www.iedb.org/) epitope prediction resource (Vita, R. et al. 2019) to search for peptides within P. falciparum RPL6 that were capable of binding HLA-A*02:01; a common allele.

Compound	liver TRM cell numbers in prime-and-trap setting [1]	expansion of NKT cells (numbers in liver and spleen) [2]	activation of NKT cells (CD69, NK1.1) ([2]; liver and spleen)	protection after malaria challenge [3]	epitope-specific CD8+ T cell response [4]
CCCCCCCCCCCCCCCCCCCCCCCCCC(=O)N[C@@H](CO[C@H]1O[C@H](CO)[C@H](O)[C@H](O)[C@H]1O)[C@H](O)[C@H](O)CCCCCCCCCCCCCC [α-GalCer, N-((2S,3S,4R)-3,4-Dihydroxy-1-(((2S,3R,4S,5R,6R)-3,4,5-trihydroxy-6-(hydroxymethyl)tetrahydro-2H-pyran-2-yl)oxy)octadecan-2-yl)hexacosanamide]	gave a much poorer liver TRM cell response; also recorded: does not generate large numbers of liver TRM cells; also recorded: did not produce high numbers of liver TRM cells	more efficient at expanding NKT cells than V.S.NVYLP	more potently activated NKT cells when compared to V.S.NVYLP	no mice were protected	–
ILNSGLLAV	–	–	–	–	triggered an epitope-specific CD8^+ T cell response

From patent US20220233668A1, “GLYCOPEPTIDE VACCINE” (VICTORIA LINK LTD., priority 2019, published 2022)
